Measurements reported in patent US8481459B2, “Chemical inhibitors of ethylene biosynthesis” (Academia Sinica, priority 2010, dated 2013).
“Also recorded” adds a separate entry of the source.

Test system: etiolated eto1-4 seedlings
Test: Triple response phenotype / hypocotyl length of etiolated eto1-4 seedlings
Assay type: in vivo, Arabidopsis thaliana
Settings: for ranking in both hypocotyl length and ethylene level assays / suppression of the eto1-4 (triple response) phenotype: 10 μM; for ranking in both hypocotyl length and ethylene level assays: etiolated eto1-4, FIG. 3; for suppression of the eto1-4 (triple response) phenotype: germinated in the dark for 3 days; for effectiveness in phenotypical assay: etiolated eto1-4 seedlings; for concentration at which hypocotyl elongation becomes visible / concentration reaching maximal / nearly saturated effect on hypocotyl: eto1-4, 3 days in the dark, dose series
Protocol: All mutants and transgenic plants were derived from the wild-type Arabidopsis thaliana Columbia ecotype (Col-0) and cultivated under a long-day condition (16-h light/8-h dark at 22° C.) under exemplary e light (100-150 μE m^−2 s^−1). A reporter construct, 5×EBS::LUC (a generous gift from Drs. Hai Li and Anna N. Stepanova, Salk Institute, USA), containing 5 copies of EIN3 binding sequence (EBS) fused with luciferase gene (LUC) was transformed to eto1-4 and subsequently used for screening compounds of a chemical library. Ethylene mutants eto1-4, eto2-1, ctr1-1 and the EIN3 overexpression line (35S::EIN3) were described previously (Solano, et al. (1998) Genes Dev 12, 3703-3714). Seeds were sterilized with 30% bleach for 6 min and sown in half-strength Murashige and Skoog (0.5×MS) medium supplemented with 0.8% agar and stratified in the dark at 4° C. for 3-4 days before germination. For analysis of the triple response phenotype, stratified seeds were grown in the dark at 22° C. for 3 days before scoring the phenotype.
A DIVERSet library (ChemBridge Inc.) containing 10,000 small molecules (in DMSO) was used for chemical screening. Three rounds of chemical screenings were carried out in 0.5×MS agar medium containing individual chemicals in each well of 96- and 24-well micro-titer plates. The initial screening was performed by sowing 10 to 15 seeds in the wells of micro-titer plates containing small molecules at 50 μM to score the long-hypocotyl phenotype. For the second and third screenings, we used 25 μM of small molecules selected from the first round of screening to score and confirm the phenotype. The seedling phenotype was scored by use of a digital camera attached to a Zeiss stereomicroscope (SteREO V8), and quantitation of hypocotyl length was performed by use of NIH Image J software. AVG and silver thiosulfate (STS, by mixing silver nitrate and sodium thiosulfate at a 1:4 molar ratio immediately before use) were obtained from Sigma and used as controls to suppress ethylene biosynthesis and perception, respectively. Agar medium was supplemented with 1-aminocyclopropane-1-carboxylic acid (10 μM, Merck) to induce the triple response in etiolated seedlings.
Shortened hypocotyls in etiolated seedlings is one of the triple response phenotypes (Guzman, et al. (1990) Plant Cell 2, 513-523; Wang, et al. (2004) Nature 428, 945-950). Two chemical compounds negating ethylene response, AVG and STS, were included as a control for comparison.

Structure (SMILES) | ranking in both hypocotyl length and ethylene level assays | suppression of the eto1-4 (triple response) phenotype | effectiveness in phenotypical assay | concentration at which hypocotyl elongation becomes visible [µM] | concentration reaching maximal / nearly saturated effect on hypocotyl [µM]
COc1ccc(C2CC(=O)c3cnc(Nc4ccccc4)nc3C2)cc1 (stereo not shown) [Compound 7303] | most effective | Suppression; also recorded: effect comparable to that of compounds 9393 and 9370 | highly effective; also recorded: the most effective | 0.1 | 5
Cc1ccc(C2CC(=O)c3cnc(NC4CCCC4)nc3C2)cc1 (stereo not shown) [Compound 9370] | most effective | Suppression; also recorded: effectiveness comparable to that of silver nitrate | highly effective | 0.1 | 5
CC1(C)CC(=O)c2cnc(NC3CCCC3)nc2C1 [Compound 9393] | most effective | Suppression; also recorded: effectiveness comparable to that of silver nitrate | highly effective |  | 
